In patent publication US11292791B2 (priority 2017, dated 2022):

target: BRD4 (Homo sapiens (Human), UniProt O60885); settings: read-out: BRD4 IC50 (μM gmean)

Compound	IC50 [µM]
COC(=O)N1c2ccc3c(nc(C[C@@H](C)c4ccccc4)n3C)c2CC[C@@H]1C [Example 1, methyl (S)-3,7-dimethyl-2-((R)-2-phenylpropyl)-3,7,8,9-tetrahydro-6H-imidazo[4,5-f]quinoline-6-carboxylate]	1 to 1000
COC(=O)N1c2ccc3c(nc(C[C@H](C)c4ccccc4)n3C)c2CC[C@@H]1C [Example 2, methyl (S)-3,7-dimethyl-2-((S)-2-phenylpropyl)-3,7,8,9-tetrahydro-6H-imidazo[4,5-f]quinoline-6-carboxylate]	1 to 1000
COC(=O)N1c2ccc3[nH]c(CCc4ccccc4)nc3c2CC[C@@H]1C [Example 7, methyl (S)-7-methyl-2-phenethyl-3,7,8,9-tetrahydro-6H-imidazo[4,5-f]quinoline-6-carboxylate]	1 to 1000
COC(=O)N1c2ccc3[nH]c(Cc4ccccc4)nc3c2CC[C@@H]1C [Example 9]	1 to 1000
COC(=O)N1c2ccc3c(nc(CCc4ccccc4)n3C)c2CC[C@@H]1C [Example 10]	1 to 1000
COC(=O)N1c2ccc3c(nc(CCn4cccn4)n3C)c2CC[C@@H]1C [Example 11]	1 to 1000
COC(=O)N1c2ccc3[nH]c(CCc4ccccn4)nc3c2CC[C@@H]1C [Example 12]	1 to 1000
COC(=O)N1c2ccc3c(nc(CCc4cccnc4)n3C)c2CC[C@@H]1C [Example 13]	1 to 1000
COC(=O)N1c2ccc3c(nc(CCc4ccncc4)n3C)c2CC[C@@H]1C [Example 14]	1 to 1000
COC(=O)N1c2ccc3c(nc(CCn4ccccc4=O)n3C)c2CC[C@@H]1C [Example 15]	1 to 1000
COC(=O)N1c2ccc3c(nc(Cc4ccccc4)n3[C@H]3C[C@@H](C(=O)O)C3)c2CC[C@@H]1C [Example 20]	1 to 1000
COC(=O)N1c2ccc3c(nc(Cc4ccccc4)n3[C@H]3C[C@H](C(=O)O)C3)c2CC[C@@H]1C [Example 21]	1 to 1000
COC(=O)N1c2ccc3c(nc(Cc4ccccc4)n3C34CCC(C(=O)O)(CC3)C4)c2CC[C@@H]1C [Example 24]	1 to 1000
COC(=O)N1c2ccc3c(nc(Cc4ccccc4)n3[C@H]3CC[C@](C)(C(=O)O)CC3)c2CC[C@@H]1C [Example 25]	1 to 1000
COC(=O)N1c2ccc3c(nc(Cc4ccccc4)n3[C@H]3CC[C@@](C)(C(=O)O)CC3)c2CC[C@@H]1C [Example 26]	1 to 1000
COC(=O)N1c2ccc3c(nc(Cc4ccc(OC)cc4)n3[C@H]3CC[C@H](C(=O)O)CC3)c2CC[C@@H]1C [Example 27]	1 to 1000
COC(=O)N1c2ccc3c(nc(Cc4ccc(OC)c(F)c4)n3[C@H]3CC[C@H](C(=O)O)CC3)c2CC[C@@H]1C [Example 28]	1 to 1000
COC(=O)N1c2ccc3c(nc(CCn4cccn4)n3[C@H]3CC[C@H](C(=O)O)CC3)c2CC[C@@H]1C [Example 31]	1 to 1000
COC(=O)N1c2ccc3c(nc(CCn4nccn4)n3[C@H]3CC[C@H](C(=O)O)CC3)c2CC[C@@H]1C [Example 32]	1 to 1000
COC(=O)N1c2ccc3c(nc(CCc4cnc(C)o4)n3[C@H]3CC[C@H](C(=O)O)CC3)c2CC[C@@H]1C [Example 33]	1 to 1000

Compound	IC50 [µM]
COC(=O)N1c2ccc3c(nc(CCc4cnn(C)c4)n3[C@H]3CC[C@H](C(=O)O)CC3)c2CC[C@@H]1C [Example 34]	1 to 1000
COC(=O)N1c2ccc3c(nc(CCc4ncc(C)o4)n3[C@H]3CC[C@H](C(=O)O)CC3)c2CC[C@@H]1C [Example 35]	1 to 1000
COC(=O)N1c2ccc3c(nc(CCc4nc(C)co4)n3[C@H]3CC[C@H](C(=O)O)CC3)c2CC[C@@H]1C [Example 36]	1 to 1000
COC(=O)N1c2ccc3c(nc(CCc4cc(C)no4)n3[C@H]3CC[C@H](C(=O)O)CC3)c2CC[C@@H]1C [Example 37]	1 to 1000
COC(=O)N1c2ccc3c(nc(CCc4nnc(C)o4)n3[C@H]3CC[C@H](C(=O)O)CC3)c2CC[C@@H]1C [Example 38]	1 to 1000
COC(=O)N1c2ccc3c(nc(CCn4ccc(C)n4)n3[C@H]3CC[C@H](C(=O)O)CC3)c2CC[C@@H]1C [Example 39]	1 to 1000
COC(=O)N1c2ccc3c(nc(CCn4cc(Cl)cn4)n3[C@H]3CC[C@H](C(=O)O)CC3)c2CC[C@@H]1C [Example 41]	1 to 1000
COC(=O)N1c2ccc3c(nc(CCc4nc(C)no4)n3[C@H]3CC[C@H](C(=O)O)CC3)c2CC[C@@H]1C [Example 42]	1 to 1000
COC(=O)N1c2ccc3c(nc(Cc4ccccc4)n3-c3ccc(C(=O)O)cc3)c2CC[C@@H]1C [Example 43]	1 to 1000
COC(=O)N1c2ccc3c(nc(Cc4ccccc4)n3-c3cccc(C(=O)O)c3)c2CC[C@@H]1C [Example 44]	1 to 1000
COC(=O)N1c2ccc3c(nc(CCc4ccn(C)n4)n3[C@H]3CC[C@H](C(=O)O)CC3)c2CC[C@@H]1C [Example 45]	1 to 1000
COC(=O)N1c2ccc3c(nc([C@H](CO)c4ccccc4)n3C3CCOCC3)c2CC[C@@H]1C [Example 46, methyl (7S)-2-[(1R)-2-hydroxy-1-phenylethyl]-7-methyl-3-(oxan-4-yl)-3H,6H,7H,8H,9H-imidazo[4,5-f]quinoline-6-carboxylate]	1 to 1000
COC(=O)N1c2ccc3c(nc([C@@H](CO)c4ccccc4)n3C3CCOCC3)c2CC[C@@H]1C [Example 47, methyl (7S)-2-[(1S)-2-hydroxy-1-phenylethyl]-7-methyl-3-(oxan-4-yl)-3H,6H,7H,8H,9H-imidazo[4,5-f]quinoline-6-carboxylate]	1 to 1000
COC(=O)N1c2ccc3c(nc([C@H](C)c4ccccc4)n3[C@H]3CC[C@H](C(=O)O)CC3)c2CC[C@@H]1C [Example 56, trans-4-[(7S)-6-(methoxycarbonyl)-7-methyl-2-[(1R)-1-phenylethyl]-3H,6H,7H,8H,9H-imidazo[4,5-f]quinolin-3-yl]cyclohexane-1-carboxylic Acid]	1 to 1000
COC(=O)N1c2ccc3c(nc([C@@H](C)c4ccccc4)n3[C@H]3CC[C@H](C(=O)O)CC3)c2CC[C@@H]1C [Example 57, trans-4-[(7S)-6-(methoxycarbonyl)-7-methyl-2-[(1S)-1-phenylethyl]-3H,6H,7H,8H,9H-imidazo[4,5-f]quinolin-3-yl]cyclohexane-1-carboxylic Acid]	1 to 1000
COC(=O)N1c2ccc3c(nc([C@H](C)c4ccccc4)n3C3CCNCC3)c2CC[C@@H]1C [Example 58, methyl (S)-7-methyl-2-((R)-1-phenylethyl)-3-(piperidin-4-yl)-3,7,8,9-tetrahydro-6H-imidazo[4,5-f]quinoline-6-carboxylate]	1 to 1000
COC(=O)N1c2ccc3c(nc([C@@H](C)c4ccccc4)n3C3CCNCC3)c2CC[C@@H]1C [Example 59, methyl (S)-7-methyl-2-((S)-1-phenylethyl)-3-(piperidin-4-yl)-3,7,8,9-tetrahydro-6H-imidazo[4,5-f]quinoline-6-carboxylate]	1 to 1000
COC(=O)N1c2ccc3c(nc(Cc4ccccc4)n3[C@@H]3CC[C@@H](CO)OC3)c2CC[C@@H]1C [Example 66, methyl (S)-2-benzyl-3-((3R,6S)-6-(hydroxymethyl)tetrahydro-2H-pyran-3-yl)-7-methyl-3,7,8,9-tetrahydro-6H-imidazo[4,5-f]quinoline-6-carboxylate]	1 to 1000
COC(=O)N1c2ccc3c(nc(Cn4ccccc4=O)n3[C@H]3CC[C@H](O)CC3)c2CC[C@@H]1C [Example 71]	1 to 1000
